According to US20080160001A1, “Antihypercholesterolemic Formulation with Less Side-Effects” (PFICKER PHARMACEUTICALS LTD., priority 2005, published 2008):

Key:
[1] = in vivo; cited from earlier work
[2] = tested on: patients; settings: cited from earlier work
[3] = cited from earlier work
[4] = tested on: patients; settings: patient with abnormal heart function, 40 mg alone, within 6 months, from 0.70; cited from earlier work
[5] = Experiment on stability of simvastatin; type: physicochemical; settings: under pH of 5-7
[6] = tested on: patients (clinical cases); assay: Summary of clinical cases; settings: patient, simvastatin 20 mg; for blood ammonia: before test 72; for cholesterol in the blood: before test 249; for concentration of cholesterol in the blood: before 249

In the case of `C[N+](C)(C)C[C@H](O)CC(=O)[O-]` [L-Carnitine], the “amount at which no toxic and side effect is found” value [1] is given as 500 mg/kg body weight/day.
In the case of `COC1=C(OC)C(=O)C(C/C=C(\C)CC/C=C(\C)CC/C=C(\C)CC/C=C(\C)CC/C=C(\C)CC/C=C(\C)CC/C=C(\C)CC/C=C(\C)CC/C=C(\C)CCC=C(C)C)=C(C)C1=O` [coenzyme Q10], the “outcome of patients close to death due to heart failure” value ([2]; 19 patients) is listed as “becoming better”, the “patients with three-year persistence” value ([2]; added to traditional therapy for heart diseases, traditional therapy 25%) is listed as 75% and the “amount at which no toxic and side effect is found” value [1] is listed as 100 mg/kg body weight/day. For the same compound, the “solubility in an aqueous medium” value [3] was “very low”.
In the case of `O=C(O)CCCCC1CCSS1` (centres unmarked) [lipoic acid], the “amount at which no toxic and side effect is found” value [1] is listed as 300 mg/day.
For `CC[C@H](C)C(=O)O[C@H]1C[C@@H](C)C=C2C=C[C@H](C)[C@H](CC[C@@H]3C[C@@H](O)CC(=O)O3)[C@H]21` [lovastatin], the “ejection fraction of heart” value [4] is given as 0.54.
With `CCC(C)(C)C(=O)O[C@H]1C[C@@H](C)C=C2C=C[C@H](C)[C@H](CC[C@@H]3C[C@@H](O)CC(=O)O3)[C@H]21` [simvastatin] the “stability of simvastatin solid” value [5] was “good stability”, the ejection fraction ([6]; 5 weeks, before test 0.59) was 0.62 and the blood ammonia ([6]; 5 weeks) was 84 µg/L. The “cholesterol in the blood” value ([6]; 5 weeks) was 202 mg/L, the ejection fraction ([6]; 10 weeks, before test 0.59) was 0.60 and the blood ammonia ([6]; 10 weeks) was 69 µg/L. For the same compound, the “cholesterol in the blood” value ([6]; 10 weeks) was 198 mg/L, the ejection fraction ([6]; 15 weeks, before test 0.59) was 0.63 and the blood ammonia ([6]; 15 weeks) was 77 µg/L. The “cholesterol in the blood” value ([6]; 15 weeks) was 194 mg/L, the ejection fraction ([6]; 20 weeks, before test 0.59) was 0.58 and the blood ammonia ([6]; 20 weeks) was 108 µg/L. The “cholesterol in the blood” value ([6]; 20 weeks) was 197 mg/L, the ejection fraction ([6]; 25 weeks, before test 0.59) was 0.62 and the blood ammonia ([6]; 25 weeks) was 89 µg/L. The “cholesterol in the blood” value ([6]; 25 weeks) was 192 mg/L, the ejection fraction ([6]; 30 weeks, before test 0.59) was 0.61 and the blood ammonia ([6]; 30 weeks) was 93 µg/L. The “cholesterol in the blood” value ([6]; 30 weeks) was 194 mg/L, the ejection fraction ([6]; 35 weeks, before test 0.59) was 0.61 and the blood ammonia ([6]; 35 weeks) was 162 µg/L. The “cholesterol in the blood” value ([6]; 35 weeks) was 189 mg/L, the ejection fraction ([6]; after 6 months, before 0.59) was 0.61 and the “concentration of blood ammonia” value ([6]; after 6 months, before 72) was 162 ng/mL. For the same compound, the “concentration of cholesterol in the blood” value ([6]; after 6 months) was 189 mg/L and the “concentration of cholesterol in the blood” value ([6]; after one month) was 202 mg/L.
In the case of Vitamin E, the “amount at which no toxic and side effect is found” value [1] is listed as 500 mg/day.
For silymarin, the “amount at which no toxic and side effect is found” value [1] is given as 200 mg/kg body weight/day.
